Measured values reported in US9809532B2, “Uses of histone acetyltransferase activators” (THE TRUSTEES OF COLUMBIA UNIVERSITY IN THE CITY OF NEW YORK, priority 2011, dated 2017).
“And” between values parts separate entries of the source, which are not always exact repeats. Equal values may be shown once. Read-outs that look alike come from different tables or passages of the source.

Assays:
human p300 = human p300 (Homo sapiens, UniProt Q09472); test: p300 activation, in vitro assay; assay type: biochemical
Sequence of human p300 (Q09472 whole entry): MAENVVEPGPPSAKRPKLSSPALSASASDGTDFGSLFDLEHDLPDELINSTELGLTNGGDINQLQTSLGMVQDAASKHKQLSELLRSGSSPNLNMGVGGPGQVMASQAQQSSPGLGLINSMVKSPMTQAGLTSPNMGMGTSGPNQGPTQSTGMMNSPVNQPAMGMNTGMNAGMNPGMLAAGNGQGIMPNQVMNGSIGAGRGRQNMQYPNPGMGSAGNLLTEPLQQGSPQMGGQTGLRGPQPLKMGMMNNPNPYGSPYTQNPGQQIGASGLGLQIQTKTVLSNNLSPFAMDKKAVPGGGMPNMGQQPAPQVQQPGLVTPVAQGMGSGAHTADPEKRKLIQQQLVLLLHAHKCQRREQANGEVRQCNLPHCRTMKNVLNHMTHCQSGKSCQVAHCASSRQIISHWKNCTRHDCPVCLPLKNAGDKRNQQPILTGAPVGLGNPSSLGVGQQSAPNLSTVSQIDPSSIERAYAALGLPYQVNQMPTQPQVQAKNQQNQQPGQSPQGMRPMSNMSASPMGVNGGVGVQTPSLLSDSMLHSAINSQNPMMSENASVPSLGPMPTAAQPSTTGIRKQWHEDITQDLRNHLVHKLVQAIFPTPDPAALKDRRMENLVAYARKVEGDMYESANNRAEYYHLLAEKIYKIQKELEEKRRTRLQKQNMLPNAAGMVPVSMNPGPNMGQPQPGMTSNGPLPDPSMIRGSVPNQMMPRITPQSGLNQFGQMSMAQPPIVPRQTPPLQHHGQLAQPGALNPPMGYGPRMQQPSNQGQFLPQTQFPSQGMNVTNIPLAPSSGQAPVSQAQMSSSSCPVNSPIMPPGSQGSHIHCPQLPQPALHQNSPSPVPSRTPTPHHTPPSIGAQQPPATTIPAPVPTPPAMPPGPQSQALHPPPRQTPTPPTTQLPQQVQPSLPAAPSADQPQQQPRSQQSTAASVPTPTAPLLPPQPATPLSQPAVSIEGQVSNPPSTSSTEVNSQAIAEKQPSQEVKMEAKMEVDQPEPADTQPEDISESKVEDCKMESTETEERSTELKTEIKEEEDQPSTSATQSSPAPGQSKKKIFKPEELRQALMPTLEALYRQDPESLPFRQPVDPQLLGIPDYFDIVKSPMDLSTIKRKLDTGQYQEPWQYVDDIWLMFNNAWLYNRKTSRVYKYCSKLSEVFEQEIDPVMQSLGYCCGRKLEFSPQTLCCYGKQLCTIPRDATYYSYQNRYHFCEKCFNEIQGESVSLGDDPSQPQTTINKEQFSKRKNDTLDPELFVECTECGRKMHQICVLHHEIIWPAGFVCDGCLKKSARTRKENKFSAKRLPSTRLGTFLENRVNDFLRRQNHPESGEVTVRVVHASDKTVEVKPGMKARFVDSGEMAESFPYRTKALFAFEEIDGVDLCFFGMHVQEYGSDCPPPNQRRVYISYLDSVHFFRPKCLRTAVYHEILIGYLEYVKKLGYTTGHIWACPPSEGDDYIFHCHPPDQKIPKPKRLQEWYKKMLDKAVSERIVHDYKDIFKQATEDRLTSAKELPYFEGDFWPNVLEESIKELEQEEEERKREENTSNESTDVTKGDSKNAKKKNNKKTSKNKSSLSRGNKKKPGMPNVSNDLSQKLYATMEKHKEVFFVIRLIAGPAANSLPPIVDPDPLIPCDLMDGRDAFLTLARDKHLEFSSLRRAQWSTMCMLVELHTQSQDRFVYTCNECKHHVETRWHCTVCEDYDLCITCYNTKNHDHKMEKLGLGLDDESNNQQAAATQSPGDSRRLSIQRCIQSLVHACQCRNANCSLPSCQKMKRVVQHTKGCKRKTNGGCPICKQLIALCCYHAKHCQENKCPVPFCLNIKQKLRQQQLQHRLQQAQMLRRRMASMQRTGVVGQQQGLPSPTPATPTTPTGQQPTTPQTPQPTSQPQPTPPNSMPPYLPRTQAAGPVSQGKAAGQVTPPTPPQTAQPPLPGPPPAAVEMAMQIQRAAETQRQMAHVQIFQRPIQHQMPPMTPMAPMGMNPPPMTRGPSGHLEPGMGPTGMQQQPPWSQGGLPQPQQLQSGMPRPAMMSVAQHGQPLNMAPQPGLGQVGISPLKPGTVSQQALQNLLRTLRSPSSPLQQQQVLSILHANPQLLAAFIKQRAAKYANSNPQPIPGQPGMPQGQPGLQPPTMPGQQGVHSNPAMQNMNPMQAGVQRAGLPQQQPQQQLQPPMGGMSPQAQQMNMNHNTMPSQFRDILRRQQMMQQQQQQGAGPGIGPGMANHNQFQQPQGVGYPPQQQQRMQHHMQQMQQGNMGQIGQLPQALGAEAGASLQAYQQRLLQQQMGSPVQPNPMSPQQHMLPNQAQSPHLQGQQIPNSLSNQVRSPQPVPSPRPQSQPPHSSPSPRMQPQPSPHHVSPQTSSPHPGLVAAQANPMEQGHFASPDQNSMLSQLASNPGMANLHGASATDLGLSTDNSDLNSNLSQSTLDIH

human PCAF = human PCAF (Homo sapiens, UniProt Q92831); test: PCAF activation, in vitro assay; assay type: biochemical
human GCN5 = human GCN5 (Homo sapiens, UniProt Q92830); test: GCN5 activation, in vitro assay; assay type: biochemical
Sequence of human GCN5 (Q92830 whole entry): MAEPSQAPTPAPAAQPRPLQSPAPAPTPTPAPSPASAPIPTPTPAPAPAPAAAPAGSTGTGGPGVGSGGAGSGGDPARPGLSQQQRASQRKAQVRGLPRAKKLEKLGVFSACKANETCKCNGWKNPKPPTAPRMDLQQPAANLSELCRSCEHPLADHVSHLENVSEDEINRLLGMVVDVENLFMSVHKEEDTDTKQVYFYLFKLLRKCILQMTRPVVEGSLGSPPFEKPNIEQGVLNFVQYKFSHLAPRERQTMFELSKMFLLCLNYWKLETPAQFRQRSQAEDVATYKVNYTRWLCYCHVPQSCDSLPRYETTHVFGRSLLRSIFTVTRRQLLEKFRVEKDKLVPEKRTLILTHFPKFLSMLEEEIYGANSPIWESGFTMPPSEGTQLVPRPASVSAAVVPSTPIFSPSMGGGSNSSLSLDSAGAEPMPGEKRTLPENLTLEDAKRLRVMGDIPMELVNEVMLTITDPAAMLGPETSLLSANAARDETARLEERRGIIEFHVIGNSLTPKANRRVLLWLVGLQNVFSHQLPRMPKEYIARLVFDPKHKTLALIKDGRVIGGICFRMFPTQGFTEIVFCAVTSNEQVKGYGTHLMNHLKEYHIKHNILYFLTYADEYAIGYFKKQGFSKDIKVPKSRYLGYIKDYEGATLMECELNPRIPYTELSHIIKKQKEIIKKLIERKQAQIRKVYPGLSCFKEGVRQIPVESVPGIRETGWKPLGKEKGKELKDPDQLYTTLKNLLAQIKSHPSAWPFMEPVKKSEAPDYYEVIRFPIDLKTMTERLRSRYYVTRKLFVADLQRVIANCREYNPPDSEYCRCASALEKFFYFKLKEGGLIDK

Oral pharmacokinetics = assay type: in vivo; details: for Kp: brain/plasma
[1] = Kinetics in blood sampled from tails; assay type: in vivo, mice; details: 20 mg/kg i.p.
[2] = Chronic administration, adverse effects; assay type: in vivo; details: 45 days, i.p., daily, 20 mg/kg
[3] = test system: histone lysines H3K4, H3K9, H3K14, H4K5, H4K8, H4K12, H4K16, and H2B; test: Histone acetylation in mouse hippocampus (WB analysis); assay type: in vivo; details: for acetylation of histone lysines (H3, H4, H2B) in hippocampus: 20 mg/Kg i.p., 30 min, FIG. 22
Method: The compound was i.p. administered at 20 mg/Kg, mice were sacrificed 30 min later, and hippocampi were removed and quickly frozen for WB analysis.

mice = test: Sensory threshold assessment; assay type: in vivo; details: vs vehicle, 5 mg/kg (FIG. 19)
Method: To evaluate contextual fear learning, freezing was measured for 5 min (consecutively) in the chamber in which the mice was trained 24 hr after training. To evaluate cued fear learning, following contextual testing, the mice were placed in a novel context (triangular cage with smooth flat floor) for 2 min (pre-CS test), after which they were exposed to the CS for 3 min (CS test), and freezing was measured. Sensory perception of the shock was determined through threshold assessment. A sequence of single foot shocks was delivered to animals placed on the same electrified grid used for fear conditioning. Initially, a […] shock was delivered for 1 sec, and the animal behavior was evaluated for flinching, jumping, and vocalization. At 30 sec intervals the shock intensity was increased by […] and then returned to 0 mV in […] increments at 30 sec intervals. Threshold to vocalization, flinching, and then jumping was quantified for each animal by averaging the shock intensity at which each animal manifests a behavioral response to the foot shock.

[4] = test system: mouse model of Alzheimer's disease; test: Memory deficits in a mouse model of Alzheimer's disease; assay type: in vivo
HDAC10 = biological target: T1, HDAC10 (Homo sapiens, UniProt Q969S8); test: HDAC10 activity assay (fluorescence); details: Compound 1 Log [nM] 4.5; Repeat1/Repeat2
T1 sequence (Q969S8 1-669): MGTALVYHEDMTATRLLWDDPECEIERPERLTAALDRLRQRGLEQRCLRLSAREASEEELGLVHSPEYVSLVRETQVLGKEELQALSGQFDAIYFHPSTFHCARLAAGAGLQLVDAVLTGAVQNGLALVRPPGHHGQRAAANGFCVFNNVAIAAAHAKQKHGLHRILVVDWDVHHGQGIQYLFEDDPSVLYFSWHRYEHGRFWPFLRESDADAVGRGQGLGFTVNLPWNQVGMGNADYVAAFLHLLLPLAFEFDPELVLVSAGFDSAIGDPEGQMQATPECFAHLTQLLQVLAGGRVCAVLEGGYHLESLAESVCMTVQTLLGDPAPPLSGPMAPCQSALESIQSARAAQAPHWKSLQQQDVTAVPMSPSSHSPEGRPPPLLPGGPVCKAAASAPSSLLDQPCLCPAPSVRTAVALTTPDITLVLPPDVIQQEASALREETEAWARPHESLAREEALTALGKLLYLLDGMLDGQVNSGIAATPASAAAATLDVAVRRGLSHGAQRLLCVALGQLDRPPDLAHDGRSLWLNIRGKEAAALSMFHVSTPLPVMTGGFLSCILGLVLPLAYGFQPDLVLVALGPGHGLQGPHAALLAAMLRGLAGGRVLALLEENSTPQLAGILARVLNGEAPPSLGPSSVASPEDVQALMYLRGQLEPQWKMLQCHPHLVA

HDAC5FL = HDAC5FL (Homo sapiens, UniProt Q9UQL6); test: HDAC5FL activity assay (fluorescence)
Sequence of HDAC5FL (Q9UQL6 whole entry): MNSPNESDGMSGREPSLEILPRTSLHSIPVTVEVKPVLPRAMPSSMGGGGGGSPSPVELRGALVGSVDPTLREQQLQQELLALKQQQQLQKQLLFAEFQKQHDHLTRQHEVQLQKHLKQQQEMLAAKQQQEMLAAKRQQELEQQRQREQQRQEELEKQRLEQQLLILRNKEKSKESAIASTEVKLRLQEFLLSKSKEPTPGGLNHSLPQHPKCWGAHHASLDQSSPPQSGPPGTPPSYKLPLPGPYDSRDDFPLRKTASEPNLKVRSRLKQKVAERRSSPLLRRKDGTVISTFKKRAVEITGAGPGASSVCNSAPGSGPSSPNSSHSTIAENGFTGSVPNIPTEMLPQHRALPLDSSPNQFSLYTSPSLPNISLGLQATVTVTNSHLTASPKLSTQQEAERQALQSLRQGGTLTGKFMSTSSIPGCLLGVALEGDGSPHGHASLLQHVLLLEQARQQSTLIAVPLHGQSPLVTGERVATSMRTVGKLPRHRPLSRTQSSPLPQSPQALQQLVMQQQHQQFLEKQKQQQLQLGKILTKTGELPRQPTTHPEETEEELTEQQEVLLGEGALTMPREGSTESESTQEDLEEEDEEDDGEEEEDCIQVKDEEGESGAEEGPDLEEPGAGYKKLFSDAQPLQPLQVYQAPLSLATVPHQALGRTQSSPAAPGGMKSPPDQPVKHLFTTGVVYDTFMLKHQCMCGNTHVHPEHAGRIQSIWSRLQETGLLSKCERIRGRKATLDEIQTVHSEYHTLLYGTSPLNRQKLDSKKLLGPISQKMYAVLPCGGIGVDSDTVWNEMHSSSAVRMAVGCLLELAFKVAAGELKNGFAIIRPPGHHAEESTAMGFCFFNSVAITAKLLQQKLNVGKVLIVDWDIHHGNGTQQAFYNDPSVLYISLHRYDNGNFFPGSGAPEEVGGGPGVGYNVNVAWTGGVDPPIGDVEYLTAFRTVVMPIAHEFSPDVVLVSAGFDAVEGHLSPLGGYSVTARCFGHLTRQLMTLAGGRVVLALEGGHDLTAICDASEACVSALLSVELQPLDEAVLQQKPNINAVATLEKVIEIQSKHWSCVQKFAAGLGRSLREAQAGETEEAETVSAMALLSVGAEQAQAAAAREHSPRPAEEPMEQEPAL

HDAC3/NCOR2 = HDAC3/NCOR2 (Homo sapiens, UniProt O15379); test: HDAC3/NCOR2 activity assay (fluorescence); details: Repeat1/Repeat2
Sequence of HDAC3/NCOR2 (O15379 whole entry): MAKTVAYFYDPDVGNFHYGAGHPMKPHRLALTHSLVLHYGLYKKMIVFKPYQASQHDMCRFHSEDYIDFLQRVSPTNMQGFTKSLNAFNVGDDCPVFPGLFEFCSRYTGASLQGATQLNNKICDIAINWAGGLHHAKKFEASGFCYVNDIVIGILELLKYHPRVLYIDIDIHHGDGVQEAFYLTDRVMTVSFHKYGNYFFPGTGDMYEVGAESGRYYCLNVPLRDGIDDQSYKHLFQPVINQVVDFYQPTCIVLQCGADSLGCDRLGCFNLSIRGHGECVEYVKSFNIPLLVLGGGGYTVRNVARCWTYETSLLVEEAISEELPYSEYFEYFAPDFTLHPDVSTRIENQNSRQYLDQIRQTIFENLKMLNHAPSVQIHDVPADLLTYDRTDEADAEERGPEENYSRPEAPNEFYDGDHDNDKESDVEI
Sequence of HDAC3/NCOR2 (Q9Y618 395-489 partner limits assumed): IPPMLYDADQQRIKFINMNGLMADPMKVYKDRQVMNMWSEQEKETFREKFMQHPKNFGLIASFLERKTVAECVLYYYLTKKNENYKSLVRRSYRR

Question: With `CCOc1cccc(OCCN(C)C)c1C(=O)Nc1ccc(Cl)c(C(F)(F)F)c1` [Compound 1] as the molecule, how does the “effect on p300 activity” value (human p300) read?
Answer: increases p300 activity

Question: What about the EC50 (human p300; FIG. 16) of the same molecule?
Answer: 0.79 µM

Question: And the “effect on p300 activity” value (human p300; listed as compound 1)?
Answer: did not interfere with p300

Question: What about the EC50 (human PCAF) of the same molecule?
Answer: 29 µM and 18.1 µM

Question: What about the EC50 (human GCN5) of the same molecule?
Answer: 49.3 µM and 65.2 µM

Question: What about the Kp (Oral pharmacokinetics; po, read-out: AUC0-t ratio brain/plasma) of the same molecule?
Answer: 6.6

Question: What about the Kp (Oral pharmacokinetics; po, read-out: AUC0-∞ ratio brain/plasma) of the same molecule?
Answer: 6.5

Question: What about the Kp (Oral pharmacokinetics; po, read-out: Cmax ratio brain/plasma) of the same molecule?
Answer: 5.7

Question: And the “amount in the brain compared with plasma” value (Oral pharmacokinetics; dosed orally, FIG. 17)?
Answer: higher than that in the plasma

Question: And the AUC0-t (Oral pharmacokinetics; oral, brain)?
Answer: 2149 ng·h/g

Question: And the “AUC0-∞” value (Oral pharmacokinetics; oral, brain)?
Answer: 2159 ng·h/g

Question: What about the Cmax (Oral pharmacokinetics; oral, brain) of the same molecule?
Answer: 1010 ng/g

Question: What about the MRT (Oral pharmacokinetics; oral, brain) of the same molecule?
Answer: 1.68 h

Question: What about the Tmax (Oral pharmacokinetics; oral, brain) of the same molecule?
Answer: 1 h

Question: And the half-life (Oral pharmacokinetics; oral, brain, read-out: t1/2 (converted))?
Answer: 0.99 h

Question: And the AUC(0-inf) (Oral pharmacokinetics; oral, plasma)?
Answer: 330 ng·h/mL

Question: What about the Cmax (Oral pharmacokinetics; oral, plasma) of the same molecule?
Answer: 177 ng/mL

Question: And the MRT (Oral pharmacokinetics; oral, plasma)?
Answer: 1.5 h

Question: What about the Tmax (Oral pharmacokinetics; oral, plasma) of the same molecule?
Answer: 0.5 h

Question: And the AUC0-t (Oral pharmacokinetics; oral, plasma, read-out: AUC0-t)?
Answer: 328 ng·h/mL

Question: And the half-life (Oral pharmacokinetics; oral, plasma, read-out: t1/2 (converted))?
Answer: 1.06 h

Question: What about the half-life (Oral pharmacokinetics; po, brain and plasma, read-out: elimination half-lives in the brain and plasma) of the same molecule?
Answer: ~1 h

Question: And the “time of peak in blood post-injection” value [1]?
Answer: around 30 minutes

Question: And the “adverse effects on chronic administration” value [2]?
Answer: did not have adverse effects

Question: And the “acetylation of histone lysines (H3, H4, H2B) in hippocampus” value [3]?
Answer: increased acetylation of histone lysines

Question: What about the “acetylation of histone lysines (H3, H4, H2B) in hippocampus” value ([3]; listed as YF2) of the same molecule?
Answer: increased specific acetylation of H3, H4, and H2B

Question: And the “crossing of the BBB” value ([3]; i.p., western blot, FIG. 21)?
Answer: crosses the BBB

Question: And the “histone 3 acetylation levels of the hippocampus” value ([3]; i.p., western blot, FIG. 21)?
Answer: increases histone 3 acetylation levels

Question: And the sensory threshold (mice)?
Answer: no difference was observed

Question: And the memory deficits [4]?
Answer: ameliorate memory deficits

Question: And the “% Activity (HDAC10)” value (HDAC10)?
Answer: 102.89%

Question: And the IC50 (HDAC5FL)?
Answer: > 200 µM

Question: What about the “% Activity (HDAC5FL)” value (HDAC5FL; Compound 1 Log [nM] 3.0, Repeat1/Repeat2) of the same molecule?
Answer: 99.80%

Question: And the “% Activity (HDAC3/NCOR2)” value (HDAC3/NCOR2; Compound 1 Log [nM] 0.5)?
Answer: 102.35% and 89.76%

Question: And the “% Activity (HDAC3/NCOR2)” value (HDAC3/NCOR2; Compound 1 Log [nM] 1.0)?
Answer: 98.01% and 97.56%

Question: And the “% Activity (HDAC3/NCOR2)” value (HDAC3/NCOR2; Compound 1 Log [nM] 1.5)?
Answer: 101.44% and 96.12%

Question: What about the “% Activity (HDAC3/NCOR2)” value (HDAC3/NCOR2; Compound 1 Log [nM] 2.0) of the same molecule?
Answer: 102.25% and 94.61%

Question: And the “% Activity (HDAC3/NCOR2)” value (HDAC3/NCOR2; Compound 1 Log [nM] 2.5)?
Answer: 101.07% and 95.51%

Question: What about the “% Activity (HDAC3/NCOR2)” value (HDAC3/NCOR2; Compound 1 Log [nM] 3.0) of the same molecule?
Answer: 99.62% and 94.38%

Question: What about the “% Activity (HDAC3/NCOR2)” value (HDAC3/NCOR2; Compound 1 Log [nM] 3.5) of the same molecule?
Answer: 97.14% and 94.27%

Question: And the “% Activity (HDAC3/NCOR2)” value (HDAC3/NCOR2; Compound 1 Log [nM] 4.0)?
Answer: 108.31% and 94.90%

Question: What about the “% Activity (HDAC3/NCOR2)” value (HDAC3/NCOR2; Compound 1 Log [nM] 4.5) of the same molecule?
Answer: 87.66% and 88.97%

Question: What about the “% Activity (HDAC3/NCOR2)” value (HDAC3/NCOR2; Compound 1 Log [nM] 5.3) of the same molecule?
Answer: 89.40% and 102.23%
